# According to PubChem BioAssay AID2060501 (Molecular Pharmacology Branch, DTP, NCI, 2025):
# Tested on: 282377-053-R-J1-PDC complex spheroids, viability
# Test: Anticancer human tumor 282377-053-R-J1-PDC patient-derived colon adenocarcinoma cell line growth inhibition [GQUAD]
# Details: for IC50: curve of first compound; for viability, T/C: stronger effect = lower value
# Excerpt: DNA G-quadruplex Stabilizer Agents in Combinations in Complex Spheroids
# A high-throughput screen of multi-cell type tumor spheroids was designed to identify active combinations of DNA G-quadruplex stabilizer agents and targeted small molecules. Complex spheroids include a stromal component modeled by human endothelial cells (HUVEC) and fibroblasts modeled by human mesenchymal stem cells (MSCs). The concentration ranges selected for each drug and investigational agent were based upon clinically achievable concentrations if the clinical Cmax of the agent was known.
# Compounds. The drugs and investigational agents: pidnarulex (CX-5461; NSC782164), APTO-253 (NSC789042), BRACO-19 (NSC847499), peposertib (NSC802822), ceralasertib (NSC780249), elimusertib (NSC800525), camonsertib (NSC841442), AZD-1390 (NSC803789), olaparib (NSC753686), talazoparib (NSC767125), ART-558 (NSC835418), sotorasib (NSC818433), MRTX-1133 (NSC836407), SN-38 (NSC673596), topotecan (NSC609699), etoposide (NSC141540), doxorubicin (NSC123127), gemcitabine (NSC613327), 5-fluorouracil (NSC19893), paclitaxel (NSC125973), vemurafenib (NSC761431), panobinostat (NSC761190), R-306465 (JNJ-16241199; NSC773264), adavosertib (NSC754352), TP-3654 (NSC805149), carboplatin (NSC241240), KSQ-4279 (NSC840948), and staurosporine (NSC755774) were obtained from the National Cancer Institute (NCI) Developmental Therapeutics Program Chemical Repository (34). The FDA-approved anticancer drug set is available from the NCI Developmental Therapeutics Program. […] The stock solutions were prepared in dimethyl sulfoxide (DMSO, Sigma-Aldrich, St. Louis, MO, cat. D2650) at 800-fold the tested concentration and stored at -70 degrees C prior to their use. All drugs and investigational agents were tested over a range starting from a high concentration at or near the clinical Cmax and decreasing in half-log increments. If the clinical Cmax for an agent had not been determined, the highest concentration tested was 10 microM.
# 2.3 Cell Culture. All cells were maintained in an incubator at 37 degrees C and 5% CO2 with 95% humidity. The PDC lines were cultured according to standard operating procedures established by the NCI PDMR. All PDCs were thawed and cultured in Matrigel-coated flasks prepared with a working solution of 1X Ham's F-12 nutrient mix, without supplementation (Invitrogen, cat. 11765054), 100 U/mL penicillin-streptomycin (Invitrogen, cat. 15140122), and 2.5% Matrigel (Corning Inc., cat. 354248) for the first three passages. The 857933-349-R-J2-PDC line was cultured in 6C/Colon 1B media, which includes advanced DMEM/F-12 (Thermo Fisher Scientific, cat. 12634028), 10 mM HEPES (Thermo Fisher Scientific, cat. 15630080), 1X GlutaMAX supplement (Thermo Fisher Scientific, cat. 35050061), 0.1 mg/mL primocin (InvivoGen, cat. ant-pm-2), 10% defined fetal bovine serum, heat inactivated (HyClone Laboratories Inc., cat. SH30070.03HI), 50% L-WRN conditioned media (ATCC, cat. CRL-3276), 1.25 mM N-Acetyl-L-cysteine (Sigma-Aldrich, cat. A9165), 10 mM nicotinamide (Sigma-Aldrich, cat. N0636), 1X B-27 supplement (Thermo Fisher Scientific, cat. 17504044), 1X N-2 supplement (Thermo Fisher Scientific, cat. 17502048), 10 microM Y-27632 dihydrochloride (Tocris Bioscience, cat. 1254), and 50 ng/mL human EGF recombinant protein (Thermo Fisher Scientific, cat. PHG0311). The 485176-168-R4-J1-PDC line was cultured in Panc media, which includes all 6C/Colon 1B media components plus 100 ng/mL human FGF-10 (Thermo Fisher Scientific, cat. 100-26), 500 nM SB-431542 (Selleckchem, cat. S1067), and gastrin (Tocris, cat. 3006).
# […]
# 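Further: spheroids exposed to compounds for 7 days before readout.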
# 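Wherever viability, T/C is given: percent of vehicle DMSO control viability with 100% = untreated-like growth.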
structure (smiles),measurement,setting,value
CC1COCCN1c1cc(C2(O)CC3CCC(C2)O3)c2cnn(-c3ccn[nH]3)c2n1 (configuration not stated) + Cc1[nH]c2ccc(F)cc2c1-c1nc2c3cccnc3c3ncccc3c2[nH]1,IC50,second compound 0.0316 µM,626 nM
same,IC50,second compound 0.1 µM,509 nM
same,IC50,second compound 0.316 µM,293 nM
same,IC50,second compound 1 µM,248 nM
same,IC50,second compound 3.16 µM,35 nM
same,IC50,second compound 10 µM,< 31.6 nM
same,"viability, T/C","second compound 0.0316 µM, first compound 0.0316 µM",81.3%
same,"viability, T/C","second compound 0.0316 µM, first compound 0.1 µM",73.1%
same,"viability, T/C","second compound 0.0316 µM, first compound 0.316 µM",71.7%
same,"viability, T/C","second compound 0.0316 µM, first compound 1 µM",35%
same,"viability, T/C","second compound 0.0316 µM, first compound 3.16 µM",25.7%
same,"viability, T/C","second compound 0.0316 µM, first compound 10 µM",17.6%
same,"viability, T/C","second compound 0.1 µM, first compound 0.0316 µM",88.2%
same,"viability, T/C","second compound 0.1 µM, first compound 0.1 µM",85.7%
same,"viability, T/C","second compound 0.1 µM, first compound 0.316 µM",59.6%
same,"viability, T/C","second compound 0.1 µM, first compound 1 µM",34.1%
same,"viability, T/C","second compound 0.1 µM, first compound 3.16 µM",25.6%
same,"viability, T/C","second compound 0.1 µM, first compound 10 µM",16.6%
same,"viability, T/C","second compound 0.316 µM, first compound 0.0316 µM",71.5%
same,"viability, T/C","second compound 0.316 µM, first compound 0.1 µM",88.2%
same,"viability, T/C","second compound 0.316 µM, first compound 0.316 µM",47.8%
same,"viability, T/C","second compound 0.316 µM, first compound 1 µM",35.2%
same,"viability, T/C","second compound 0.316 µM, first compound 3.16 µM",24.7%
same,"viability, T/C","second compound 0.316 µM, first compound 10 µM",16.2%
same,"viability, T/C","second compound 1 µM, first compound 0.0316 µM",71.7%
same,"viability, T/C","second compound 1 µM, first compound 0.1 µM",65.5%
same,"viability, T/C","second compound 1 µM, first compound 0.316 µM",45.4%
same,"viability, T/C","second compound 1 µM, first compound 1 µM",25.4%
same,"viability, T/C","second compound 1 µM, first compound 3.16 µM",16.4%
same,"viability, T/C","second compound 1 µM, first compound 10 µM",9.51%
same,"viability, T/C","second compound 3.16 µM, first compound 0.0316 µM",52%
same,"viability, T/C","second compound 3.16 µM, first compound 0.1 µM",28.9%
same,"viability, T/C","second compound 3.16 µM, first compound 0.316 µM",11.3%
same,"viability, T/C","second compound 3.16 µM, first compound 1 µM",5.76%
same,"viability, T/C","second compound 3.16 µM, first compound 3.16 µM",3.99%
same,"viability, T/C","second compound 3.16 µM, first compound 10 µM",3.21%
same,"viability, T/C","second compound 10 µM, first compound 0.0316 µM",31.2%
same,"viability, T/C","second compound 10 µM, first compound 0.1 µM",16.5%
same,"viability, T/C","second compound 10 µM, first compound 0.316 µM",8.68%
same,"viability, T/C","second compound 10 µM, first compound 1 µM",2.7%
same,"viability, T/C","second compound 10 µM, first compound 3.16 µM",2.23%
same,"viability, T/C","second compound 10 µM, first compound 10 µM",2.03%
